The results in this text go back to patent US7759397B2, “6-amino(aza)indane compounds suitable for treating disorders that respond to modulation of the dopamine D3 receptor” (Abbott GmbH & Co. KG, priority 2004, dated 2010).

Assay [1] concerns the target T1, human dopamine D2L receptors (long isoform) (Homo sapiens, UniProt P14416).
T1 construct: expressed in transfected cells
Briefly: Dopamine D2L receptor binding, displacement of [125I] iodospiperone. As to conditions: membranes of HEK-293 cells stably expressing human D2L; 0.01 nM [125I] iodospiperone; 25° C., 60 minutes; read-out: Ki(D2)* receptor binding constant. The method, then:
(§1) The substance to be tested was either dissolved in methanol/Chremophor® (BASF-AG) or in dimethyl sulfoxide and then diluted with water to the desired concentration.
(§2) Each assay mixture was run in triplicate.
The incubation buffer contained 50 mM tris, 120 mM NaCl, 5 mM KCl, 2 mM CaCl2, 2 mM MgCl2 and 0.1% bovine serum albumin. The buffer was adjusted to pH 7.4 with HCl.
(§3) After having been incubated at 25° C. for 60 minutes, the assay mixtures were filtered through a Whatman GF/B glass fiber filter under vacuum using a cell collecting device. The filters were transferred to scintillation viols using a filter transfer system. After 4 ml of Ultima Gold® (Packard) have been added, the samples were shaken for one hour and the radioactivity was then counted in a Beta-Counter (Packard, Tricarb 2000 or 2200CA). The cpm values were converted into dpm using a standard quench series and the program belonging to the instrument.
(§4) The inhibition curves were analyzed by means of iterative nonlinear regression analysis using the Statistical Analysis System (SAS) which is similar to the “LIGAND” program described by Munson and Rodbard.

Assay [2] deals with T2, human dopamine D3 receptors (Homo sapiens, UniProt P35462).
T2 construct: expressed in transfected cells
Briefly: Dopamine D3 receptor binding, displacement of [125I]-iodosulpride. Conditions: membranes of HEK-293 cells stably expressing human D3; 0.1 nM [125I]-iodosulpride; 25° C., 60 minutes; read-out: Ki(D3)* receptor binding constant.

The target of assay [3] is T2, human dopamine D3 receptors. The assay is described as above. Conditions: ratio of receptor binding constants D2 over D3. The method, then: as §1, §2
The incubation buffer contained 50 mM tris, 120 mM NaCl, 5 mM KCl, 2 mM CaCl2, 2 mM MgCl2 and 0.1% bovine serum albumin, 10 μM […] and 0.1% ascorbic acid (prepared fresh daily). The buffer was adjusted to pH 7.4 with HCl. Dopamine D2L receptor:
as §3, §4

T2 sequence (P35462 whole entry): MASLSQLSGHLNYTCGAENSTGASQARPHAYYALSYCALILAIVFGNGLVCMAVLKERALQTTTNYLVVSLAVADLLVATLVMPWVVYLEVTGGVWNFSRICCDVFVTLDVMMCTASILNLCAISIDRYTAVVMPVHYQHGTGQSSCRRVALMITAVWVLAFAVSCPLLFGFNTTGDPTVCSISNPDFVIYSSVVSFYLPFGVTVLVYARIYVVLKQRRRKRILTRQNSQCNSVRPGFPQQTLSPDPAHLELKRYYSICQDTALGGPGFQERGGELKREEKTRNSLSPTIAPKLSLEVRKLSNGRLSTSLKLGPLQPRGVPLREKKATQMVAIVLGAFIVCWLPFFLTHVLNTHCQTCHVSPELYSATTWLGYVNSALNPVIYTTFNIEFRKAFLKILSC
T1 sequence (P14416 whole entry, canonical isoform): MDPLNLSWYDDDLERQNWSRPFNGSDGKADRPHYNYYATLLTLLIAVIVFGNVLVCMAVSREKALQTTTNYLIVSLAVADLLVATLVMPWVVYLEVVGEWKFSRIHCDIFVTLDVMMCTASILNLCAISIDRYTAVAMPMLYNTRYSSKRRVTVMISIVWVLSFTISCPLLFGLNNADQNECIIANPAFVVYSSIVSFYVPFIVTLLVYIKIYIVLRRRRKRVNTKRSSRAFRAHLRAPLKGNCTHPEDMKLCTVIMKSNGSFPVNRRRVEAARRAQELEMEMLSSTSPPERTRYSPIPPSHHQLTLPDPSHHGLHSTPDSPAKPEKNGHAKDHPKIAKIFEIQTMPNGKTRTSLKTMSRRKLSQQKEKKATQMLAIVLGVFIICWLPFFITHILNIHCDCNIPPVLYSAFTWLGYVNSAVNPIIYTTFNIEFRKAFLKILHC

`CCCN(CCC)[C@@H]1Cc2ccc(NS(=O)(=O)c3ccc(C(C)C)cc3)cc2C1.Cl` [Example 7, N—((R)-2-Dipropylamino-indan-5-yl)-4-isopropyl-benzenesulfonamide hydrochloride]: the Ki in assay [1] amounted to 51 nM; in assay [2], 0.26 nM. Moreover, the “Ki(D2)*/Ki(D3)* selectivity ratio” value in assay [3] was found to be 195.

Regarding `CCCN[C@H]1Cc2ccc(NS(=O)(=O)c3ccc(C(C)C)cc3)cc2C1.Cl` [Example 2, 4-Isopropyl-N—((S)-2-propylamino-indan-5-yl)-benzenesulfonamide hydrochloride], the Ki was determined as 132 nM in assay [1] and 6.7 nM in assay [2]. For the same compound, the “Ki(D2)*/Ki(D3)* selectivity ratio” value in assay [3] was determined as 20.

Take `CCCN[C@@H]1Cc2ccc(NS(=O)(=O)c3ccc(C(C)C)cc3)cc2C1` [Example 1, 4-Isopropyl-N—((R)-2-propylamino-indan-5-yl)-benzenesulfonamide]: the values for the Ki in assay [1] and in assay [2] were 257 nM and 4 nM, respectively. Besides, the “Ki(D2)*/Ki(D3)* selectivity ratio” value in assay [3] stood at 64.

As to `CCCN1CCC[C@H]2c3cc(NS(=O)(=O)c4ccc(C(C)C)cc4)ccc3C[C@@H]21` [4 (SS)-isomer], the inhibition constant Ki in assay [2] was determined as 1.6 nM. Besides, the “Ki(D2)*/Ki(D3)* selectivity ratio” value in assay [3] is given as 17.

`CCCN[C@H]1Cc2ccc(N(C)S(=O)(=O)c3ccc(C(C)C)cc3)cc2C1` [Example 3, 4-isopropyl-N-methyl-N—((S)-2-propylamino-indan-5-yl)-benzenesulfonamide]: the inhibition constant (Ki) in assay [1] came out at 157 nM; in assay [2] it was 7 nM. Also, the “Ki(D2)*/Ki(D3)* selectivity ratio” value in assay [3] is listed as 22.

Turning to `CCCN1CCC[C@@H]2c3cc(NS(=O)(=O)c4ccc(C(C)C)cc4)ccc3C[C@H]21` [4 (RR)-isomer], in assay [2], the Ki was found to be 9.4 nM. For the same compound, the “Ki(D2)*/Ki(D3)* selectivity ratio” value in assay [3] was 134.
